Laboratory results reported in patent US12295936B2, “Immunomodulating urea azalides” (Zoetis Services LLC, priority 2020, dated 2025).

Key:
[1] = pH dependent aqueous solubility; type: physicochemical
Method: In an aqueous solution, Example H-11 exists as an equilibrated mixture of two lactone isomers as shown above. The ratio is approximately 9:1 lactone A:B. The rate of equilibration depends on pH and temperature, with neutral pH giving faster equilibration, pH˜5-6 giving much slower equilibration, and higher temperatures resulting in faster equilibration. Equilibration occurs in under 1-hour at pH>6 and temperatures >60° C. H-11 isomerization is a 6 exo-Trig cyclization and is a favored reaction by Baldwin's Rules. The dominant isomer, lactone-A, is a 15-membered macrocyclic lactone, while the minor isomer, lactone-B, is a 13-membered macrocyclic lactone. […] Due to the pH dependent solubility of H-11, and other compounds of the invention, dissolution of an organic acid (e.g., citric acid) into water prior to adding the active agent (e.g., H-11) may be necessary to ensure complete dissolution, particularly for higher concentration solutions, thereby providing a solution with enough buffering capacity for dissolution.

[2] = test system: P. multocida; test: Murine P. multocida intranasal challenge study with lung tissue RNA sequence analysis; type: in vivo, mice
Method: In one murine P. multocida intranasal challenge study, mice were administered tulathromycin (16 mg/kg; T02), M9 (32 mg/kg; T03), or ceftiofur (9 mg/kg; T04) by subcutaneous injection 18 hours after bacterial challenge (5×10^3 CFU/mouse) for lung tissue RNA sequence analysis. Survival at Day 7 was about 80%, 50%, and 90% for T02, T03, and T04, respectively, compared to placebo at 0%. Differential gene expression from total lung tissue RNA sequence analysis indicated at least 226 unique genes were up or down regulated (with significance) for T03. Output from ingenuity pathway analysis of these unique genes predicted major upstream regulators of the involved pathways. Data was analyzed based on the number of genes being modulated in the same direction that were associated with a given upstream regulator. An activation z-score of 2 or greater is considered significant and the direction change is indicated by +(activated) or − (inhibited). The top 5 pathways included: IL-9 signaling, glucocorticoid receptor signaling, prolactin signaling, JAK STAT signaling, and IL-17 signaling. The top 6 upstream regulators (activation z-score) included: lipopolysaccharide (−6.725), TNF (−4.669), IFNG (−5.759), IL-1β (−5.947), STAT1 (−2.787), and poly rl:rC-RNA (−5.289). Even though this study was run in the murine model, the top upstream regulators identified as being modulated by M9 include an almost ubiquitous overlap with the pathways identified in the natural disease study as being key mediators in BRD, and therefore is modulating highly relevant pathways in BRD pathobiology.

[3] = target: LCN2 (Bos taurus, UniProt A0AAA9TIZ6); test: Surface plasmon resonance (SPR) drug/target affinity; type: binding; settings: biologically relevant pH
Description: (§1) In order to add further clarity to binding partner identification, surface plasma resonance (SPR) technology was used. […] These targets were unique to this drug class compared to gamithromycin, a macrolide antibiotic used in the treatment of BRD. Both targets fit the paradigm that the immunological mechanism of action is linked to the pathways that are both of key importance as being dysregulated in BRD and modulated by M9. LCN2 is expressed by neutrophils upon activation of toll-like receptors (TLRs) and is a component of the innate inflammatory response. […] Very little information exists to date on SLAMF9. It is a member of a family of signal adaptor proteins that is thought to lack signal transduction capabilities.
(§2) KD is the equilibrium dissociation constant that was used to present the drug/target affinity. The identified targets associated with drug were measured by surface plasmon resonance (SPR) to define the KD.

[4] = target: LPO (Bos taurus, UniProt P80025); test: as above; type: binding
Description: as §1, §2

[5] = target: NLRX1; test: as above; type: binding
Description: as §1, §2

[6] = target: SLAMF9 (Bos taurus, UniProt E1BNF9); test: as above; type: binding; settings: biologically relevant pH
Description: as §1, §2

[7] = target: TLR4; test: as above; type: binding
Description: as §1, §2

[8] = Plasma pharmacokinetics in cattle; settings: following a 10 mg/kg dose, separate PK study
Method: The primary clinical endpoint for efficacy was treatment failure/success over a 14-day observation period. Clinically normal beef calves (150-200 kg) at moderate risk for BRD were dosed on arrival to the feedlot. Animals (N=114/group) received saline (T01), 5 mg/kg M9 (T02), 10 mg/kg M9 (T03) or Zactran (T04).

[9] = test system: E. coli; test: In-vitro MIC model (CLSI broth micro-dilution); settings: Escherichia coli, ATCC25922, read-out: Comparative MIC's, E. coli ATCC 25922
[10] = M9 32 mg/kg (T03), ingenuity pathway analysis, − = inhibited

Chain of LCN2 (A0AAA9TIZ6 entry or part of it): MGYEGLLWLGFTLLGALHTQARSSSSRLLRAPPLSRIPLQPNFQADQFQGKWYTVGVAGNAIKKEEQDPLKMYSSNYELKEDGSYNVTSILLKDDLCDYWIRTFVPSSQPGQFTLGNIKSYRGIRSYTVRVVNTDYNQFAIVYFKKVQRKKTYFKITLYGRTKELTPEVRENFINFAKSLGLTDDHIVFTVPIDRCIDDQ
Chain of SLAMF9 (E1BNF9 entry or part of it): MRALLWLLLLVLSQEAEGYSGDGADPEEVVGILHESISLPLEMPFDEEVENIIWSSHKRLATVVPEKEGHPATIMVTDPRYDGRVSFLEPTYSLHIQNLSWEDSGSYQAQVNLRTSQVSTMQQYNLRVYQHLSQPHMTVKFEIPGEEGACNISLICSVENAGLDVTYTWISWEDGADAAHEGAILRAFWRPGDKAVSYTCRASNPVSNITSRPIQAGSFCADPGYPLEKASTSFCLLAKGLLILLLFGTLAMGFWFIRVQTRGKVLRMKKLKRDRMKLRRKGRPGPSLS

Compound	aqueous solubility ([1]; acidic pH)	aqueous solubility ([1]; as the pH approaches neutral conditions)	unique genes up or down regulated (with significance), total lung tissue RNA sequence analysis ([2]; M9 32 mg/kg (T03))	activation z-score, upstream regulator IFNG [2, 10]	activation z-score, upstream regulator IL-1β [2, 10]	activation z-score, upstream regulator STAT1 [2, 10]	activation z-score, upstream regulator TNF [2, 10]	activation z-score, upstream regulator lipopolysaccharide [2, 10]	activation z-score, upstream regulator poly rl:rC-RNA [2, 10]	Survival at Day 7 ([2]; subcutaneous 18 hours after challenge (5×10^3 CFU/mouse): tulathromycin 16 mg/kg, M9 32 mg/kg, ceftiofur 9 mg/kg, placebo 0%) [%]	drug/target binding, LCN2 [3]	Interaction type [4]	drug/target binding, NLRX1 [5]	drug/target binding, SLAMF9 [6]	Interaction KD (M) [7]	maximum plasma concentration [8] [µg/mL]	MIC [9] [µg/mL]
CCCNC[C@]1(O)[C@H](C)O[C@@H](O[C@H]2[C@H](C)[C@@H](O[C@@H]3O[C@H](C)C[C@H](N(C)C(=O)N(C)c4ccccc4)[C@H]3O)[C@](C)(O)C[C@@H](C)CN[C@H](C)[C@@H](O)[C@](C)(O)[C@@H](CC)OC(=O)[C@@H]2C)C[C@@]1(C)OC [Example H-11, 1-((2S,3R,4S,6R)-2-(((2R,3S,4R,5R,8R,10R,11R,12S,13S,14R)-2-ethyl-3,4,10-trihydroxy-13-(((2R,4R,5S,6S)-5-hydroxy-4-methoxy-4,6-dimethyl-5-((propylamino)methyl)tetrahydro-2H-pyran-2-yl)oxy)-3,5,8,10,12,14-hexamethyl-15-oxo-1-oxa-6-azacyclopentadecan-11-yl)oxy)-3-hydroxy-6-methyltetrahydro-2H-pyran-4-yl)-1,3-dimethyl-3-phenylurea]	very soluble	lower solubility	–	–	–	–	–	–	–	–	–	–	–	–	–	–	–
CCCNC[C@]1(O)[C@H](C)O[C@@H](O[C@H]2[C@H](C)[C@@H](O[C@@H]3O[C@H](C)C[C@H](NC)[C@H]3O)[C@](C)(O)C[C@@H](C)CN[C@H](C)[C@@H](O)[C@](C)(O)[C@@H](CC)OC(=O)[C@@H]2C)C[C@@]1(C)OC [Example M9, (2R,3S,4R,5R,8R,10R,11R,12S,13S,14R)-2-ethyl-3,4,10-trihydroxy-13-(((2R,4R,5S,6S)-5-hydroxy-4-methoxy-4,6-dimethyl-5-((propylamino)methyl)-tetrahydro-2H-pyran-2-yl)oxy)-11-(((2S,3R,4S,6R)-3-hydroxy-6-methyl-4-(methylamino)tetrahydro-2H-pyran-2-yl)oxy)-3,5,8,10,12,14-hexamethyl-1-oxa-6-azacyclopentadecan-15-one, reference compound]	–	–	at least 226	−5.759	−5.947	−2.787	−4.669	−6.725	−5.289	~50	direct binding targets	Indirect	Indirect	direct binding targets	Indirect	5	> 64
